The source of these data is the SangsterLogP compilation.

The compound `Cc1nc(N)nc(C(Cl)(Cl)Cl)n1` displayed a logP of 1.77.

In the case of `O=C1C2=C(CCCC2)C(=O)N1c1ccc(Cl)cc1`, the logP was 3.26.

The compound `CCCNc1nc(C(Cl)(Cl)Cl)nc(C(Cl)(Cl)Cl)n1` showed a logP of 4.09.

`Cc1nc(C(Cl)(Cl)Cl)nc(C(Cl)(Cl)Cl)n1` yielded a logP of 4.1.

For `ClC(Cl)(Cl)c1nc(NCc2ccccc2)nc(C(Cl)(Cl)Cl)n1`, the logP came to 4.93.

In turn, `Nc1nc(N)nc(C(Cl)(Cl)Cl)n1` returned a lipophilicity (logP) of 1.24.

`CNc1nc(C(Cl)(Cl)Cl)nc(C(Cl)(Cl)Cl)n1`: the logP worked out at 3.23.

Regarding `COc1nc(C(Cl)(Cl)Cl)nc(C(Cl)(Cl)Cl)n1`, the logP turned out to be 3.64.

Regarding `CN(C)c1nc(C(Cl)(Cl)Cl)nc(C(Cl)(Cl)Cl)n1`, the logP worked out at 4.94.

On to `O=C1OC(=Nc2ccc(Cl)cc2)C2=C1CCCC2`, for which the logP is 3.81.

The compound `Nc1nc(C(Cl)(Cl)Cl)nc(C(Cl)(Cl)Cl)n1` returned a logP of 2.48.

In turn, `CSc1nc(C(Cl)(Cl)Cl)nc(C(Cl)(Cl)Cl)n1` yielded a logP of 4.42.

Compound `COc1nc(N)nc(C(Cl)(Cl)Cl)n1` displayed a logP of 2.39.

The compound `CNc1nc(C)nc(C(Cl)(Cl)Cl)n1` showed a logP of 2.39.

Compound `Cc1nc(Nc2ccccc2)nc(C(Cl)(Cl)Cl)n1` yielded a logP of 3.41.

`ClC(Cl)(Cl)c1nc(Nc2ccccc2)nc(C(Cl)(Cl)Cl)n1` displayed a logP of 4.39.

As for `CSc1nc(N)nc(C(Cl)(Cl)Cl)n1`, the logP stood at 3.12.

Turning to `Cc1nc(NCc2ccccc2)nc(C(Cl)(Cl)Cl)n1`, the logP was 3.86.

Compound `CCCNc1nc(C)nc(C(Cl)(Cl)Cl)n1` displayed a logP of 3.29.

Compound `ClC(Cl)(Cl)c1nc(C(Cl)(Cl)Cl)nc(C(Cl)(Cl)Cl)n1` showed a logP of 3.75.

Turning to `Cc1nc(N(C)C)nc(C(Cl)(Cl)Cl)n1`, the logP was determined as 3.78.
